Read-outs that look alike come from different tables or passages of the source.
Experiments:
[1] = First-in-human Part 1 single ascending dose blood PK; format: in vivo
Description: A first-in-human study was conducted to assess the safety and tolerability, pharmacokinetics (PK) and pharmacodynamics (PD) of single and multiple doses of compound (I) both as once daily (qd) and twice daily (bid) oral administration in healthy volunteers and those with atopic diathesis, to support further clinical development of compound (I) in autoimmune diseases. This study also explored the effect of food intake.
(§1) First-in-human study in up to approximately 168 healthy volunteers (HVs), of which 64 (in Parts 2 & 4) had asymptomatic atopic diathesis. • Part 1 was a double-blind (subject and investigator blind, sponsor unblinded), placebo-controlled single ascending dose (SAD) escalation study of 10 cohorts (N=80) • Part 2 was a double-blind (subject and investigator blind, sponsor unblinded), placebo-controlled multiple ascending dose (MAD) (13 doses over 12 days) escalation study employing once daily dosing in 6 cohorts in healthy volunteers with asymptomatic atopic diathesis (N=48) • Part 3 was a single dose open-label crossover food effect study in 12 HVs • Part 4 was a double-blind (subject and investigator blind, sponsor unblinded), placebo-controlled multiple dose (25 doses over 12 days) study employing twice daily dosing in 2 cohorts of healthy volunteers with asymptomatic atopic diathesis (N=16)
In Part 1, subjects were admitted to the study site on Day −2 or −1 for baseline safety assessments and to confirm eligibility. Eligible subjects received a single dose of compound (I) or placebo under fasting conditions on Day 1. They were domiciled from Day −1 to the morning of Day 5 (96 hours post last drug administration).
Subjects were assigned to one of the following 10 cohorts. In each cohort, 8 subjects were randomized to either compound (I) or matching placebo in an overall 6:2 ratio. The first sub-cohort was randomized in a 1:1 ratio as one subject on compound (I) and one on matching placebo. The remaining 6 subjects per cohort, dosed after a 48-hour observation period of the initially dosed 2 subjects, were randomized in a 5:1 ratio. • Cohort 1: single oral dose of 0.5 mg compound (I) or matching placebo • Cohort 2: single oral dose of 1.5 mg compound (I) or matching placebo • Cohort 3: single oral dose of 5 mg compound (I) or matching placebo • Cohort 4: single oral dose of 15 mg compound (I) or matching placebo • Cohort 5: single oral dose of 30 mg compound (I) or matching placebo • Cohort 6: single oral dose of 60 mg compound (I) or matching placebo • Cohort 7: single oral dose of 100 mg compound (I) or matching placebo • Cohort 8: single oral dose of 200 mg compound (I) or matching placebo • Cohort 9: single oral dose of 400 mg compound (I) or matching placebo • Cohort 10: single oral dose of 600 mg compound (I) or matching placebo
(§2) Pharmacokinetic samples were obtained in blood and evaluated in all subjects at all dose levels. The samples from placebo subjects were not analyzed. The samples for PK assessments from subjects were collected at time points defined in the study. Compound (I) concentrations were determined in blood by a validated LC-MS/MS method.

BTK = molecular target: T1, BTK (Rattus norvegicus, UniProt Q5S255); assay: BTK occupancy ex vivo immunoassay (biotinylated BTK probe) in tissues after oral dosing
T1 construct: total BTK relative protein levels were determined in lysates of selected tissues; from tissue; host or cells: rat spleen, blood, lymph nodes, lung (lysates)
T1 sequence (Q5S255 1-660): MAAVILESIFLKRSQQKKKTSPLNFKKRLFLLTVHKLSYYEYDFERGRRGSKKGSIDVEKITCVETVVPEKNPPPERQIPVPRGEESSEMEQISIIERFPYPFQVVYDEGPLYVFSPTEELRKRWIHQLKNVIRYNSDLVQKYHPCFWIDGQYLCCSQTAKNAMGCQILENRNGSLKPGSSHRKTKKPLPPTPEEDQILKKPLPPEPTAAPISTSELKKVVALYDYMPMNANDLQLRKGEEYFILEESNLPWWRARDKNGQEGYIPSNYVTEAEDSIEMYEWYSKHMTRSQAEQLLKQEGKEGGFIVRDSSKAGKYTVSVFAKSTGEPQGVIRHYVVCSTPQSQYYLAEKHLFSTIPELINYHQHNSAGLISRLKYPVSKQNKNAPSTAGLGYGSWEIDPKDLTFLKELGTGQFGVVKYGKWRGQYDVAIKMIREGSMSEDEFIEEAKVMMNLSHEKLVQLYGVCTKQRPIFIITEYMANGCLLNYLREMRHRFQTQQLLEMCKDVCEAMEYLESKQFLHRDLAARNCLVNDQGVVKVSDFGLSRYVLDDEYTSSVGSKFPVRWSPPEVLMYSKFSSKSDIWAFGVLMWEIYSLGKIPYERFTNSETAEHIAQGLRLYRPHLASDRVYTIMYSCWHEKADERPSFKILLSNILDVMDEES
Description: The in vivo PD effects of an irreversible BTK inhibitor like compound (I) are determined by the extent and duration of covalent BTK occupancy by the inhibitor. BTK occupancy after treatment with Compound of Formula (I) (also referenced to as Compound (I)) was measured in an ex vivo immunoassay. The fraction of unoccupied BTK protein was assayed after in vitro incubation with a covalent biotinylated BTK probe, since compound (I) and the probe bind to BTK in a mutually exclusive manner. Unoccupied BTK, as well as total BTK relative protein levels were determined in lysates of selected tissues and levels of unoccupied BTK were normalized to total BTK protein levels in the same samples.
(§3) From the experimental data it was apparent that a short transient systemic exposure of compound (I) is sufficient to achieve full BTK occupancy in several tissues at low oral doses of 1-3 mg/kg. […] This very low and transient systemic exposure is consistent with the PK/PD model typical of irreversible inhibitors.
The duration of BTK occupancy was determined in rats and mice after single oral dose of compound (I) for spleen, blood, lymph nodes and lung. […] The longer persistence of BTK occupancy in blood has been reported before (Advani et al 2013, J Clin Onc; 31(1):88-94).

[2] = First-in-human Part 3 food effect PK, single 60 mg dose; format: in vivo; details: for Tmax / AUC(0-t): human, oral, 60 mg
Description: as §1
Part 3 was an open-label, randomized, two-way cross-over, single dose study to assess food effects. In Part 3, each subject participated in a 28 day screening period (Day −29 to −2), 2 baseline (Day −1) and 2 treatment periods, each consisting of a single dose administration on Day 1 followed by safety and PK assessment up to Day 5. Treatment period 2 consisted of a follow-up visit and an end of study evaluation on Day 22 and 40, respectively. The two treatment periods were separated by a wash-out period of at least 18 days (+/−1 day).
Subjects were randomized to one of the 2 treatment sequences in the ratio of 1:1:
as §2

[3] = tested on: defined allergen response (wheal size); assay: Skin prick test (SPT) in healthy atopic subjects; format: in vivo, human; details: for dose at which reduction of wheal size in SPT started to plateau: multiple ascending dose, q.d.
Description: The ability of compound (I) to inhibit a defined allergen response has been evaluated by means of the skin prick test (SPT) in healthy atopic subjects in the MAD study part of the first in human study. SPT was performed prior to dosing (at screening, baseline and pre-dose on Day 1) and at different time points after the first dose (Day 1) and after 11 days of once daily dosing (Day 12).

[4] = Blood exposure of compound (I) after oral dose in rats; format: in vivo; details: female, rat, 1 mg/kg dose
Description: as §3

[5] = single dose 60 mg, FAST, Geomean
[6] = single dose 60 mg, FED, Geomean

With C=CC(=O)N(C)CCOc1c(N)ncnc1-c1cc(F)cc(NC(=O)c2ccc(C3CC3)cc2F)c1C [Compound of Formula (I), N-(3-(6-Amino-5-(2-(N-methylacrylamido)ethoxy)pyrimidin-4-yl)-5-fluoro-2-methylphenyl)-4-cyclopropyl-2-fluorobenzamide] the half-life ([1]; human, blood, oral, single ascending doses, dose-independent, read-out: distribution phase T1/2 (converted)) was ~1 h, the MRT ([1]; human, blood, oral, single ascending doses, read-out: mean residence time (MRT) in the circulation) was 1 to 5 h and the half-life ([1]; human, blood, oral, single dose 100 mg, read-out: terminal half-life (converted)) was 4 h. The half-life ([1]; human, blood, oral, single dose 600 mg, read-out: terminal half-life (converted)) was 18 h, the “oral blood clearance CL/F, estimate across all cohorts” value ([1]; single dose) was “about 383 L/h” and the “BTK occupancy in blood” value (BTK; female rats, single oral dose) was “consistent with those observed in spleen”. For the same molecule, the “spleen BTK occupancy” value (BTK; female rats, single oral dose 3 mg/kg) was “full”, the receptor occupancy at 0.3 mg/kg (BTK; rat, female rats, single oral dose 0.3 mg/kg, read-out: spleen BTK occupancy) was 30% and the receptor occupancy at 1 mg/kg (BTK; rat, female rats, single oral dose 1 mg/kg, read-out: spleen BTK occupancy) was 76 to 81%. For the same molecule, the “BTK occupancy half-life in blood” value (BTK; rats, single oral dose) was “approximately 87 hours”, the “BTK occupancy half-life in spleen” value (BTK; rats, single oral dose) was “approximately 5 hours” and the Tmax ([2]; blood, fasted, read-out: mean Tmax) was 1 h. For the same molecule, the Tmax ([2]; blood, fed, read-out: mean Tmax) was > 3 h, the AUC(0-t) ([2]; blood, single dose 60 mg, FAST, Geomean, read-out: AUC0-24) was 182 ng·h/mL and the AUC(0-t) ([2]; blood, single dose 60 mg, FAST, Geomean, read-out: AUClast) was 177 ng·h/mL. It also gave an AUC(0-t) ([2]; blood, single dose 60 mg, FAST, Mean, read-out: AUC0-24) of 202 ng·h/mL, an AUC(0-t) ([2]; blood, single dose 60 mg, FAST, Mean, read-out: AUClast) of 196 ng·h/mL and a Tmax ([2]; blood, single dose 60 mg, FED, Geomean, read-out: Tmax) of 3.18 h. The Tmax ([2]; whole blood, single dose 60 mg, FAST, Geomean, read-out: Tmax) was 0.95 h, the Tmax ([2]; whole blood, single dose 60 mg, FAST, Mean, read-out: Tmax) was 1.02 h and the AUC(0-t) ([2]; whole blood, single dose 60 mg, FED, Geomean, read-out: AUC0-24) was 249 ng·h/mL. It also gave an AUC(0-t) ([2]; whole blood, single dose 60 mg, FED, Mean, read-out: AUC0-24) of 264 ng·h/mL, an AUC(0-t) ([2]; whole blood, single dose 60 mg, FED, Mean, read-out: AUClast) of 252 ng·h/mL and a Tmax ([2]; whole blood, single dose 60 mg, FED, Mean, read-out: Tmax) of 3.42 h. The Cmax [2, 5] was 100.95 ng/mL, the Tlast [2, 5] was 9.66 h and the Cmax ([2]; single dose 60 mg, FAST, Mean) was 114.81 ng/mL. The Tlast ([2]; single dose 60 mg, FAST, Mean) was 10.50 h, the AUClast [2, 6] was 237.84 ng·h/mL and the Cmax [2, 6] was 80.86 ng/mL. The Tlast [2, 6] was 9.25 h, the Cmax ([2]; single dose 60 mg, FED, Mean) was 83.39 ng/mL and the Tlast ([2]; single dose 60 mg, FED, Mean) was 9.50 h. The “higher AUC0-24 fed vs fasted” value ([2]; single oral dose 60 mg) was 1.4 fold, the “lower Cmax fed vs fasted” value ([2]; single oral dose 60 mg) was 1.25 fold and the “inhibition of wheal size in SPT” value ([3]; 10 mg q.d.) was “minimal inhibition”. For the same molecule, the “dose at which reduction of wheal size in SPT started to plateau” value ([3]; listed as compound (I)) was “around 100 mg”, the “dose at which reduction of wheal size in SPT started to plateau” value ([3]; listed as compound of Formula (I)) was 100 mg and the concentration at 0.5 h ([4]; 0.5 hours post dose) was 49.1 nM. It also gave a concentration at 5 h ([4]; 5 hours post dose) of 5.6 nM.

From patent US12383556B2, “Methods of treating Sjögren's syndrome using a Bruton's tyrosine kinase inhibitor” (NOVARTIS AG, priority 2019, dated 2025)
